“And” between values parts separate entries of the source, which are not always exact repeats. Identical values can stand only once. Marks after values point to notes of the source that are not given here.
Tests used:
[1] = tested on: human liver mitochondrial fraction; assay: Intrinsic clearance and half-life in human liver mitochondrial fraction; type: in vitro ADME; details: 0.5 mg/mL human liver mitochondrial fraction, 1 μM test compounds; for Half-life (min) R1: 5 μM Serotonin and Benzylamine controls, replicate 1; for Half-life (min) R3 / Half-life (min) R4 / Half-life (min) Mean: 5 μM controls; for Half-life (min) R3: replicate 3; for Half-life (min) R4: replicate 4; for Half-life (min) Mean: mean of replicates
From the text: (§1) Use of Liver Mitochondrial Fraction to Model Human Metabolism of Deuterated DMT

[2] = as above; type: in vitro ADME; details: 0.5 mg/mL human liver mitochondrial fraction; 1 μM test compounds, 5 μM controls; mean of replicates
From the text: as §1

[3] = Plasma pharmacokinetics of test compound after oral dosing in rats; details: for mean Cmax / Determined Concentration of test compound in plasma / Determined Concentration of test compound in plasma, Mean: rat plasma; for mean Cmax: 25 mg/kg single oral gavage; for Determined Concentration of test compound in plasma / Determined Concentration of test compound in plasma, Mean: oral dosing; for Determined Concentration of test compound in plasma: individual animal; for Determined Concentration of test compound in plasma, Mean: mean of 3 animals; for systemic exposure compared to SPL026: rat, oral (PO) dosing
[4] = Plasma IAA metabolite levels after oral dosing in rats; details: for Mean IAA Cmax: rat plasma IAA (semi quantified) after 25 mg/kg PO of the compound; for Mean IAA tmax: rat plasma IAA after 25 mg/kg PO of the compound; for Estimated IAA Concentration / Estimated IAA Concentration, Mean: rat plasma, PO Dose (25 mg/kg); for Estimated IAA Concentration: individual animal; for Estimated IAA Concentration, Mean: mean of animals; for IAA biosynthesis compared to SPL026: rat, PO dosing
[5] = tested on: Human (mixed gender) hepatocytes; assay: In vitro intrinsic clearance of DMT and deuterated blends in human hepatocytes; type: in vitro ADME
Protocol: Use of Human Hepatocytes to Assess the In Vitro Intrinsic Clearance of Deuterated DMT Analogue Blends Relative to DMT
To use human hepatocytes to assess the in vitro intrinsic clearance of deuterated DMT analogue blends relative to DMT.
Test compounds were mixed with the hepatocyte suspension within a 96-well plate and incubated for up to 60 minutes at 37° C. The suspension was continuously agitated. At 7 time points, small aliquots were withdrawn, and the test compound/blend concentration therein was measured by LC-MS/MS.
Intrinsic clearance and half-life values were calculated for DMT and the 6 deuterated mixtures described above.

[6] = 10 min, fumarate salt, 25 mg/kg
[7] = 15 min, fumarate salt, 25 mg/kg
[8] = 30 min, fumarate salt, 25 mg/kg
[9] = 45 min, fumarate salt, 25 mg/kg
[10] = 60 min, fumarate salt, 25 mg/kg
[11] = 120 min, fumarate salt, 25 mg/kg
[12] = 180 min, fumarate salt, 25 mg/kg

NCc1ccccc1 [Benzylamine, reference compound]
Half-life (min) R1 [1]: 24.3 min
Half-life (min) R3 [1]: 21.2 min
Half-life (min) R4 [1]: 23.5 min
half-life at 5 μM [2]: 22.8 min

NCCc1c[nH]c2ccc(O)cc12 [Serotonin, reference compound]
Half-life (min) R1 [1]: 9.3 min
Half-life (min) R3 [1]: 9.1 min
Half-life (min) R4 [1]: 8.5 min
half-life at 5 μM [2]: 9 min

O=C(O)/C=C/C(=O)O.[2H]C([2H])([2H])N(C([2H])([2H])[2H])C([2H])([2H])Cc1c[nH]c2ccccc12 [SPL028viii, (96.7%) α,α,-dideutero-N,N-bis-trideutero-dimethyltryptamine fumarate salt]
Half-life (min) R3 [1]: 92.9 min
Half-life (min) R4 [1]: 131.5† min
mean Cmax [3]: 40.77 ng/mL
Determined Concentration of test compound in plasma ([3]; 1 min, fumarate salt): 19.8 ng/mL and BLQ (Below the lower limit of quantification 0.310 ng/mL) (2×)
Determined Concentration of test compound in plasma, Mean ([3]; 1 min): <6.8 ng/mL
Determined Concentration of test compound in plasma ([3]; 5 min, fumarate salt): 14.9 ng/mL and 3.11 ng/mL and 0.506 ng/mL
Determined Concentration of test compound in plasma, Mean ([3]; 5 min): 6.2 ng/mL
Determined Concentration of test compound in plasma ([3]; 10 min, fumarate salt): 18.0 ng/mL and 13.7 ng/mL and 11.8 ng/mL
Determined Concentration of test compound in plasma, Mean ([3]; 10 min): 14.5 ng/mL
Determined Concentration of test compound in plasma ([3]; 15 min, fumarate salt): 20.5 ng/mL and 20.3 ng/mL and 36.2 ng/mL
Determined Concentration of test compound in plasma, Mean ([3]; 15 min): 25.7 ng/mL
Determined Concentration of test compound in plasma ([3]; 30 min, fumarate salt): 9.08 ng/mL and 23.0 ng/mL and 35.7 ng/mL
Determined Concentration of test compound in plasma, Mean ([3]; 30 min): 22.6 ng/mL
Determined Concentration of test compound in plasma ([3]; 45 min, fumarate salt): 5.90 ng/mL and 21.7 ng/mL and 40.0 ng/mL
Determined Concentration of test compound in plasma, Mean ([3]; 45 min): 22.5 ng/mL
Determined Concentration of test compound in plasma ([3]; 60 min, fumarate salt): 4.43 ng/mL and 30.5 ng/mL and 62.0 ng/mL
Determined Concentration of test compound in plasma, Mean ([3]; 60 min): 32.3 ng/mL
Determined Concentration of test compound in plasma ([3]; 120 min, fumarate salt): 13.5 ng/mL and 31.6 ng/mL and 63.8 ng/mL
Determined Concentration of test compound in plasma, Mean ([3]; 120 min): 36.3 ng/mL
Determined Concentration of test compound in plasma ([3]; Predose): BLQ (Below the lower limit of quantification 0.310 ng/mL)
Determined Concentration of test compound in plasma, Mean ([3]; Predose): BLQ (Below the lower limit of quantification 0.310 ng/mL)
systemic exposure compared to SPL026 [3]: increased systemic exposure
Mean IAA Cmax [4]: 0.827 ng/mL
Mean IAA tmax [4]: 60 min
Estimated IAA Concentration ([4]; 1 min): BLQ
Estimated IAA Concentration, Mean ([4]; 1 min): BLQ
Estimated IAA Concentration ([4]; 5 min, fumarate salt, 25 mg/kg): BLQ (2×) and 0.223 ng/mL
Estimated IAA Concentration, Mean ([4]; 5 min): <0.281 ng/mL
Estimated IAA Concentration [4, 6]: BLQ (2×) and 0.430 ng/mL
Estimated IAA Concentration, Mean ([4]; 10 min): <0.350 ng/mL
Estimated IAA Concentration [4, 7]: BLQ (2×) and 0.846 ng/mL
Estimated IAA Concentration, Mean ([4]; 15 min): <0.489 ng/mL
Estimated IAA Concentration [4, 8]: BLQ (2×) and 1.04 ng/mL
Estimated IAA Concentration, Mean ([4]; 30 min): <0.544 ng/mL
Estimated IAA Concentration [4, 9]: 0.347 ng/mL and 0.821 ng/mL and 1.0 ng/mL
Estimated IAA Concentration, Mean ([4]; 45 min): 0.733 ng/mL
Estimated IAA Concentration [4, 10]: BLQ and 0.772 ng/mL and 0.883 ng/mL
Estimated IAA Concentration, Mean ([4]; 60 min): 0.827 ng/mL
Estimated IAA Concentration [4, 11]: BLQ and 0.516 ng/mL and 0.747 ng/mL
Estimated IAA Concentration, Mean ([4]; 120 min): 0.631 ng/mL
Estimated IAA Concentration [4, 12]: BLQ and 0.747 ng/mL and 0.673 ng/mL
Estimated IAA Concentration, Mean ([4]; 180 min): 0.710 ng/mL
Estimated IAA Concentration ([4]; Predose): BLQ
Estimated IAA Concentration, Mean ([4]; Predose): BLQ
IAA biosynthesis compared to SPL026 [4]: significant decrease

[2H]C([2H])([2H])N(CCc1c[nH]c2ccccc12)C([2H])([2H])[2H] [SPL028vii]
Half-life (min) Mean [1]: 10.2 min
Half-life (min) R3 [1]: 9.4 min
Half-life (min) R4 [1]: 10.9 min

O=C(O)/C=C/C(=O)O.[2H]C([2H])(Cc1c[nH]c2ccccc12)N(C)C [SPL028i, (96.6%) α,α,-dideutero-N,N-dimethyltryptamine fumarate salt]
Half-life (min) R1 [1]: 86.1 min
Half-life (min) Mean [1]: 85.0 min
Half-life (min) R3 [1]: 82.6 min
Half-life (min) R4 [1]: 72.1 min
mean Cmax [3]: 54.3 ng/mL
Determined Concentration of test compound in plasma ([3]; 1 min): BLQ (Below the lower limit of quantification 0.310 ng/mL)
Determined Concentration of test compound in plasma, Mean ([3]; 1 min): BLQ (Below the lower limit of quantification 0.310 ng/mL)
Determined Concentration of test compound in plasma ([3]; 5 min, fumarate salt): 0.865 ng/mL and 5.85 ng/mL and 0.688 ng/mL
Determined Concentration of test compound in plasma, Mean ([3]; 5 min): 2.5 ng/mL
Determined Concentration of test compound in plasma ([3]; 10 min, fumarate salt): 2.42 ng/mL and 49.2 ng/mL and 6.72 ng/mL
Determined Concentration of test compound in plasma, Mean ([3]; 10 min): 19.4 ng/mL
Determined Concentration of test compound in plasma ([3]; 15 min, fumarate salt): 7.46 ng/mL and 34.3 ng/mL and 19.0 ng/mL
Determined Concentration of test compound in plasma, Mean ([3]; 15 min): 20.3 ng/mL
Determined Concentration of test compound in plasma ([3]; 30 min, fumarate salt): 22.6 ng/mL (2×) and 46.4 ng/mL
Determined Concentration of test compound in plasma, Mean ([3]; 30 min): 30.5 ng/mL
Determined Concentration of test compound in plasma ([3]; 45 min, fumarate salt): 22.6 ng/mL and 33.1 ng/mL and 43.7 ng/mL
Determined Concentration of test compound in plasma, Mean ([3]; 45 min): 33.1 ng/mL
Determined Concentration of test compound in plasma ([3]; 60 min, fumarate salt): 30.5 ng/mL and 32.1 ng/mL and 53.1 ng/mL
Determined Concentration of test compound in plasma, Mean ([3]; 60 min): 38.6 ng/mL
Determined Concentration of test compound in plasma ([3]; 120 min, fumarate salt): 38.0 ng/mL and 18.7 ng/mL and 49.3 ng/mL
Determined Concentration of test compound in plasma, Mean ([3]; 120 min): 35.3 ng/mL
Determined Concentration of test compound in plasma ([3]; Predose): BLQ (Below the lower limit of quantification 0.310 ng/mL)
Determined Concentration of test compound in plasma, Mean ([3]; Predose): BLQ (Below the lower limit of quantification 0.310 ng/mL)
systemic exposure compared to SPL026 [3]: increased systemic exposure
half-life compared to undeuterated-DMT [5]: nearly doubling
intrinsic clearance rate compared to undeuterated-DMT [5]: almost halved
Mean IAA Cmax ([4]; fumarate salt): 2.933 ng/mL and 2.993 ng/mL
Mean IAA tmax [4]: 45 min
Estimated IAA Concentration ([4]; 1 min): BLQ
Estimated IAA Concentration, Mean ([4]; 1 min): BLQ
Estimated IAA Concentration ([4]; 5 min, fumarate salt, 25 mg/kg): 0.523 ng/mL and 0.874 ng/mL and 0.503 ng/mL
Estimated IAA Concentration, Mean ([4]; 5 min): 0.633 ng/mL
Estimated IAA Concentration [4, 6]: 1.24 ng/mL and 1.84 ng/mL and 1.34 ng/mL
Estimated IAA Concentration, Mean ([4]; 10 min): 1.473 ng/mL
Estimated IAA Concentration [4, 7]: 2.41 ng/mL and 0.749 ng/mL and 1.97 ng/mL
Estimated IAA Concentration, Mean ([4]; 15 min): 1.709 ng/mL
Estimated IAA Concentration [4, 8]: 3.53 ng/mL and 2.10 ng/mL and 2.18 ng/mL
Estimated IAA Concentration, Mean ([4]; 30 min): 2.606 ng/mL
Estimated IAA Concentration [4, 9]: 4.67 ng/mL and 1.95 ng/mL and 2.35 ng/mL
Estimated IAA Concentration, Mean ([4]; 45 min): 2.993 ng/mL
Estimated IAA Concentration [4, 10]: 2.78 ng/mL and 1.59 ng/mL and 1.50 ng/mL
Estimated IAA Concentration, Mean ([4]; 60 min): 1.955 ng/mL
Estimated IAA Concentration [4, 11]: 2.94 ng/mL and 1.42 ng/mL and 1.81 ng/mL
Estimated IAA Concentration, Mean ([4]; 120 min): 2.055 ng/mL
Estimated IAA Concentration [4, 12]: 2.09 ng/mL and 0.898 ng/mL and 1.45 ng/mL
Estimated IAA Concentration, Mean ([4]; 180 min): 1.480 ng/mL
Estimated IAA Concentration ([4]; Predose): BLQ
Estimated IAA Concentration, Mean ([4]; Predose): BLQ
IAA biosynthesis compared to SPL026 [4]: significant decrease

— patent US12042564B2, “Therapeutic solid dosage forms” (CYBIN UK LTD, priority 2020, dated 2024)
